Test system: neurotensin receptor (CRE-driven luciferase)
Assay: CRE-luciferase reporter mice, whole-animal brain luminescence (IVIS)
Format: in vivo
Settings: 1.68 mg rolipram and 0.84 mg forskolin given together IP, luciferin four hours after, FIG. 31

Question: With `COc1ccc(C2CNC(=O)C2)cc1OC1CCCC1` (stereo not shown) [rolipram] as the compound, how does the “CRE-driven luciferase induction (brain luminescence), positive control” value read?
Answer: high levels of luminescence from the animal's brain

Reference: patent US20220048961A1, “TRANSFERRIN RECEPTOR TARGETING PEPTIDES” (FRED HUTCHINSON CANCER RESEARCH CENTER, priority 2018, published 2022)
